Tests used:
P-Selectin [1] = biological target: T1, P-Selectin (Homo sapiens, UniProt P16109); assay: ELISA inhibition of recombinant P-selectin binding to immobilized SLe^x; conditions: for IC50: recombinant selectin, immobilized SLe^x, ELISA, mean of 3 determinations, read-out: IC50 Values Against SLe^x, P-Selectin
T1 sequence (P16109 42-830): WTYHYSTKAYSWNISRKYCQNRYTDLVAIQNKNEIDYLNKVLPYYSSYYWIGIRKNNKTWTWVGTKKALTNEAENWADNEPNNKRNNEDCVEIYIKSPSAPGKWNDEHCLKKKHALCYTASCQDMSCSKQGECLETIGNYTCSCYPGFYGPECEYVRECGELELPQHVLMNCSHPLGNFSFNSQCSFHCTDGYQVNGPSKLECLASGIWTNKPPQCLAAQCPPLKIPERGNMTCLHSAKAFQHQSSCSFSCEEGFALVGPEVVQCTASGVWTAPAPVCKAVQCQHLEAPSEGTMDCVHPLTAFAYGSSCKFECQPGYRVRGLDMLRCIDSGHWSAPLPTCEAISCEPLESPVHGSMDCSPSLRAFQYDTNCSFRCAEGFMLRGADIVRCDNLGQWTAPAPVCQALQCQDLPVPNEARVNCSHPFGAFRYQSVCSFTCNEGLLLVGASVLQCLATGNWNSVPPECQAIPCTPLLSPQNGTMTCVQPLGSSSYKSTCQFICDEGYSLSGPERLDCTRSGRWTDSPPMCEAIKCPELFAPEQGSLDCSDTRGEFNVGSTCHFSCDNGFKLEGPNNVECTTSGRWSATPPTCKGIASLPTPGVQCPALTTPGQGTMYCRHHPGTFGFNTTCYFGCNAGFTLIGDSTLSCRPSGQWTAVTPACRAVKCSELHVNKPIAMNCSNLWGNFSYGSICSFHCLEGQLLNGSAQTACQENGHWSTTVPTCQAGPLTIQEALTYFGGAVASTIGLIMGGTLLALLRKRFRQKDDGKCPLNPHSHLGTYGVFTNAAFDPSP
Experimental: (§1) Relative Inhibitory Properties of Branched Chains Including Neu5Ac and/or GalNAcLe^x Against Recombinant Selectins Binding to Immobilized SLe^x
(§2) ELISA inhibition studies were done as previously reported conditions. Ic50 values against immobilized SLe^x are the mean values of 3 determinations and were calculated according to published methodology.

L-Selectin [2] = biological target: T2, L-Selectin (Homo sapiens, UniProt P14151); assay: ELISA inhibition of recombinant L-selectin binding to immobilized SLe^x; conditions: mean of 3 determinations, read-out: IC50 Values Against SLe^x, L-Selectin
T2 sequence (P14151 39-372): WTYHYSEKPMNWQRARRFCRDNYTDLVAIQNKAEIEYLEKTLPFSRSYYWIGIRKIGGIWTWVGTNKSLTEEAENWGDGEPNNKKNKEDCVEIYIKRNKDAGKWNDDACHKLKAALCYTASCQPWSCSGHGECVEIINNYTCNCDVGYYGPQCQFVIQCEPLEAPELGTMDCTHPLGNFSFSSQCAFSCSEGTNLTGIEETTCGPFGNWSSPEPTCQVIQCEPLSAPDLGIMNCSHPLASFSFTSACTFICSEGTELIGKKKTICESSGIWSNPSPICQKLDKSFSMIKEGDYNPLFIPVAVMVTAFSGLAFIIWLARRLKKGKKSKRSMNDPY
Experimental: as §1, §2

E-Selectin [3] = biological target: T3, E-Selectin (Homo sapiens, UniProt P16581); assay: ELISA inhibition of recombinant E-selectin binding to immobilized SLe^x; conditions: mean of 3 determinations, read-out: IC50 Values Against SLe^x, E-Selectin
T3 sequence (P16581 22-610): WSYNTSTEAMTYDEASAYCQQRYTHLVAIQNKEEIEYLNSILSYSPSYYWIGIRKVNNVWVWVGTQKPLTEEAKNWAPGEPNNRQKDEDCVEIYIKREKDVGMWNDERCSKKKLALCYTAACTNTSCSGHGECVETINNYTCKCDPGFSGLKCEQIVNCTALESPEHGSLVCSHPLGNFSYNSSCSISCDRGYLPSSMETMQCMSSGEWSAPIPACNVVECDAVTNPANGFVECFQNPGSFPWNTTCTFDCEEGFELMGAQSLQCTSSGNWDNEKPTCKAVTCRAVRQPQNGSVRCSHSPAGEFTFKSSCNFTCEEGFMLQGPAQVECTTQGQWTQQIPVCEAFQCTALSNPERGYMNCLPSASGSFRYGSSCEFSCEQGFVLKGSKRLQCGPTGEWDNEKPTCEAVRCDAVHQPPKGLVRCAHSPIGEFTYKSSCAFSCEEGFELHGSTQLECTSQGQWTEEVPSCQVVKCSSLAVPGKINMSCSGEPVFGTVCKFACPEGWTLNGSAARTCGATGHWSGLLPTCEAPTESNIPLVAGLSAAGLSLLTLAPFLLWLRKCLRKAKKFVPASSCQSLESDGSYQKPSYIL
Experimental: as §1, §2

L-Selectin [4] = biological target: T2, L-Selectin; conditions: cited from earlier work; for affinity for L-selectin: recent study / inhibition studies of Scudder et al.
E-Selectin [5] = biological target: T3, E-Selectin; conditions: isolated from human cell produced Protein C; cited from earlier work
P-Selectin [6] = biological target: T1, P-Selectin; assay: Other studies of binding (unspecified; P-selectin context); conditions: no details given

IC50 (P-Selectin [1])	IC50 (L-Selectin [2])	IC50 (E-Selectin [3])	Compound	other results
400 µM	300 µM	> 500 µM	CO[C@@H]1O[C@H](CO)[C@@H](O[C@@H]2O[C@H](CO)[C@H](O)[C@H](O)[C@H]2NC(C)=O)[C@H](O[C@@H]2O[C@@H](C)[C@@H](O)[C@@H](O)[C@@H]2O)[C@H]1NC(C)=O [Compound 8b]	
			COC1O[C@H](CO)[C@@H](O[C@@H]2O[C@H](COS(=O)(=O)O)[C@H](O)[C@H](O[C@]3(C(=O)O)C[C@H](O)[C@@H](NC(C)=O)[C@H]([C@H](O)[C@H](O)CO)O3)[C@H]2O)[C@H](O[C@@H]2O[C@@H](C)[C@@H](O)[C@@H](O)[C@@H]2O)[C@H]1NC(C)=O (stereo partly shown) [NeuAcα2→3SE-6 Galβ1→4(Fucα1→3)GlcNAcOMe]	affinity for L-selectin (L-Selectin [4]): lacked a high affinity; ligand quality for L-selectin (L-Selectin [4]; recent study): not a superior ligand
			GalNAcβ1→4(Fucα1→3)GlcNAcβ1→Manα1→3/6Manβ1→4GlcNAcβ1→4GlcNAc	inhibition of E-selectin (E-Selectin [5]): potent inhibitor
			NeuAcα2→3Galβ1→4(Fucα1→3)SE-3GlcNAcβ1→3Gal	affinity for L-selectin (L-Selectin [4]): lacked a high affinity
85 µM	105 µM	> 500 µM	CO[C@H]1O[C@H](CO[C@@H]2O[C@H](CO)[C@@H](O[C@@H]3O[C@H](CO)[C@H](O)[C@H](O)[C@H]3NC(C)=O)[C@H](O[C@@H]3O[C@@H](C)[C@@H](O)[C@@H](O)[C@@H]3O)[C@H]2NC(C)=O)[C@H](O)[C@H](O[C@@H]2O[C@H](CO)[C@H](O)[C@H](O[C@]3(C(=O)O)C[C@H](O)[C@@H](NC(C)=O)[C@H]([C@H](O)[C@H](O)CO)O3)[C@H]2O)[C@H]1NC(C)=O [Compound 16]	
400 µM	300 µM	> 500 µM	CO[C@H]1O[C@H](CO[C@@H]2O[C@H](CO)[C@@H](O[C@@H]3O[C@H](CO)[C@H](O)[C@H](O)[C@H]3NC(C)=O)[C@H](O[C@@H]3O[C@@H](C)[C@@H](O)[C@@H](O)[C@@H]3O)[C@H]2NC(C)=O)[C@H](O)[C@H](O[C@@H]2O[C@H](CO)[C@H](O)[C@H](O)[C@H]2O)[C@H]1NC(C)=O [Compound 14, Methyl O-(2-acetamido-2-deoxy-β-D-galactopyranosyl)-(1→4)-O-[(α-L-fucopyranosyl)-(1→3)-O]-(2-acetamido-2-deoxy-β-D-glucopyranosyl)-(1→6)-O-[(β-D-galactopyranosyl)-(1→3)-O]-2-acetamido-2-deoxy-α-D-galactopyranoside]	
	600 µM		sialyl Lewis^x [reference compound]	
> 500 µM	500 µM	> 500 µM	CO[C@H]1O[C@H](CO[C@@H]2O[C@H](CO)[C@@H](O[C@@H]3O[C@H](CO)[C@H](O)[C@H](O)[C@H]3NC(C)=O)[C@H](O[C@@H]3O[C@@H](C)[C@@H](O)[C@@H](O)[C@@H]3O)[C@H]2NC(C)=O)[C@H](O)[C@H](O[C@@H]2O[C@H](CO)[C@H](O)[C@H](OS(=O)(=O)O)[C@H]2O)[C@H]1NC(C)=O [Compound 19]	binding in other studies (P-Selectin [6]): even greater binding; binding ability relative to sialyl Lewis^x for P-selectin (P-Selectin [1]; compared with sialyl Lewis^x): about six
